A word on the IC50: it is the point on the concentration scale where inhibition reaches its midpoint.

Results on 8 compounds are retold here after US20120230951A1 (priority 2011, published 2012).

Each structure is given as a SMILES string. Structures can show the parent of a compound that is named as a salt.

This test deals with GT-1a pRLuc H771b 75 S/I subgenomic replicon cell line. The test is described as follows: HCV GT-1a replicon luciferase reporter assay. Type of test: cell-based. The note with it: Hepatitis C virus, GT1A, 72 h, read-out: GT-1a (IC50) (nM). A digest of the protocol: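 Huh-7-derived subgenomic replicon cells (GT-1b Con1 2209-23, 5000/well; GT-1a H77 chimera with Con1 NS3 first 75 aa, 3000/well) in 5% FBS DMEM; compounds added 24 h post-plating, 3-fold dilutions, 1% DMSO. Renilla luciferase read after 72 h; EC50 is 50% signal reduction versus untreated, non-linear fit.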
A general note: Replicon systems follow genome replication, usually without infectious particles.

In the case of `COC(=O)N[C@H]1CCc2cc(C(N)=O)cc3c2N(C1=O)[C@H](c1ncc(-c2ccc(-c4ccc(-c5cnc([C@H]6CCCN6C(=O)[C@H](NC(=O)OC)C(C)C)[nH]5)cc4)cc2)[nH]1)C3` [Compound I-27, {(2S,5S)-9-Carbamoyl-2-[5-(4′-{2-[(R)-1-((R)-2-methoxycarbonylamino-3-methyl-butyryl)-pyrrolidin-2-yl]-3H-imidazol-4-yl}-biphenyl-4-yl)-1H-imidazol-2-yl]-4-oxo-1,2,4,5,6,7-hexahydro-azepino[3,2,1-hi]indol-5-yl}-carbamic acid methyl ester], the concentration for half-maximal inhibition (IC50) was 5.08 nM.

As for `COC(=O)N[C@H]1CCc2cccc3c2N(C1=O)[C@H](c1ncc(-c2ccc(-c4ccc(-c5cnc(C6C7CC7CN6C(=O)[C@H](NC(=O)OC)c6ccccc6)[nH]5)cc4)cc2)[nH]1)C3` (stereo partly drawn) [Compound I-65, {(2S,5S)-2-[5-(4′-{2-[(S)-3-((R)-2-Methoxycarbonylamino-2-phenyl-acetyl)-3-aza-bicyclo[3.1.0]hex-2-yl]-3H-imidazol-4-yl}-biphenyl-4-yl)-1H-imidazol-2-yl]-4-oxo-1,2,4,5,6,7-hexahydro-azepino[3,2,1-hi]indol-5-yl}-carbamic acid methyl ester], the 50% inhibitory concentration (IC50) amounted to 67.2 nM. For `COC(=O)N[C@H]1CCc2cccc3c2N(C1=O)[C@H](c1ncc(-c2ccc(-c4ccc(-c5cnc([C@@H]6C[C@H](F)CN6C(=O)[C@@H](NC(=O)OC)C(C)C)[nH]5)cc4)cc2)[nH]1)C3` [Compound I-1, {(2S,5S)-2-[5-(4′-{2-[(2S,4S)-4-Fluoro-1-((S)-2-methoxycarbonylamino-3-methyl-butyryl)-pyrrolidin-2-yl]-3H-imidazol-4-yl}biphenyl-4-yl)-1H-imidazol-2-yl]-4-oxo-1,2,4,5,6,7-hexahydro-azepino[3,2,1-hi]indol-5-yl}-carbamic acid methyl ester], the half-inhibitory concentration (IC50) worked out at 6.33 nM. Regarding `COC(=O)N[C@H]1CCc2cccc3c2N(C1=O)[C@H](c1ncc(-c2ccc4cc(-c5ccc(-c6cnc([C@@H]7CCCN7C(=O)[C@@H](NC(=O)OC)C(C)C)[nH]6)cn5)ccc4c2)[nH]1)C3` [Compound I-24, ((2S,5S)-2-{4-[6-(5-{2-[(S)-1-((S)-2-Methoxycarbonylamino-3-methyl-butyryl)-pyrrolidin-2-yl]-3H-imidazol-4-yl}-pyridin-2-yl)-naphthalen-2-yl]-1H-imidazol-2-yl}-4-oxo-1,2,4,5,6,7-hexahydro-azepino[3,2,1-hi]indol-5-yl)-carbamic acid methyl ester di-trifluoroacetic acid salt], the IC50 stood at 1.16 nM. In the case of `COC(=O)N[C@H]1CCc2cccc3c2N(C1=O)[C@H](c1ncc(-c2ccc(-c4ccc(-c5cnc([C@@H]6CCCN6C(=O)[C@@H](NC(=O)OC)C(C)C)[nH]5)cn4)cc2)[nH]1)C3` [Compound I-34, ((2S,5S)-2-{5-[4-(5-{2-[(S)-1-((S)-2-Methoxycarbonylamino-3-methyl-butyryl)-pyrrolidin-2-yl]-3H-imidazol-4-yl}-pyridin-2-yl)-phenyl]-1H-imidazol-2-yl}-4-oxo-1,2,4,5,6,7-hexahydro-azepino[3,2,1-hi]indol-5-yl)-carbamic acid methyl ester], the half-inhibitory concentration (IC50) is 86.7 nM. To `COC(=O)N[C@H]1CCc2cccc3c2N(C1=O)[C@H](c1ncc(-c2ccc(-c4ccc(-c5ccc6nc([C@@H]7CC(F)(F)CN7C(=O)[C@@H](NC(=O)OC)C(C)C)[nH]c6c5)cc4)cc2)[nH]1)C3` [Compound I-4, {(2S,5S)-2-[5-(4′-{2-[(S)-4,4-Difluoro-1-((S)-2-methoxycarbonylamino-3-methyl-butyryl)-pyrrolidin-2-yl]-3H-benzoimidazol-5-yl}-biphenyl-4-yl)-1H-imidazol-2-yl]-4-oxo-1,2,4,5,6,7-hexahydro-azepino[3,2,1-hi]indol-5-yl}-carbamic acid methyl ester] belongs 4.11 nM; to `CC[C@H](C)[C@H](NC(=O)OC)C(=O)N1CC(F)(F)C[C@H]1c1ncc(-c2cnc(-c3ccc(-c4cnc([C@@H]5Cc6cccc7c6N5C(=O)[C@@H](NC(=O)OC)CC7)[nH]4)cc3)nc2)[nH]1` [Compound I-58, ((1S,2S)-1-{(S)-4,4-Difluoro-2-[5-(2-{4-[2-((2S,5S)-5-methoxycarbonylamino-4-oxo-1,2,4,5,6,7-hexahydro-azepino[3,2,1-hi]indol-2-yl)-1H-imidazol-4-yl]-phenyl}-pyrimidin-5-yl)-1H-imidazol-2-yl]-pyrrolidine-1-carbonyl}-2-methyl-butyl)-carbamic acid methyl ester], 26.1 nM; to `COC(=O)N[C@H]1CCc2cccc3c2N(C1=O)[C@H](c1ncc(-c2ccc4nc(-c5ccc(-c6cnc([C@@H]7CCCN7C(=O)[C@@H](NC(=O)OC)C(C)C)[nH]6)cc5)ccc4c2)[nH]1)C3` [Compound I-22, ((2S,5S)-2-{5-[2-(4-{2-[(S)-1-((S)-2-Methoxycarbonylamino-3-methyl-butyryl)-pyrrolidin-2-yl]-1H-imidazol-4-yl}-phenyl)-quinolin-6-yl]-1H-imidazol-2-yl}-4-oxo-1,2,4,5,6,7-hexahydro-azepino[3,2,1-hi]indol-5-yl)-carbamic acid methyl ester trifluroacetic acid, trifluoroacetic acid salt], 1.45 nM.
